# Measurements reported in patent publication US11970474B2, “Substituted benzodiazoles and use thereof in therapy” (THOMAS HELLEDAYS STIFTELSE FÖR MEDICINSK FORSKNING, priority 2018, dated 2024).
# Molecular target: OGG1 (Homo sapiens (Human), UniProt O15527)
# Test: In vitro OGG1 activity assay
# Format: biochemical
# Details: 800 pM OGG1 enzyme, 2 nM human APEX1, 10 nM 8-oxoA:C substrate
# Method: Method 1: In Vitro OGG1 Activity Assay OGG1 activity is assayed by measuring the increase in fluorescence from a duplex oligonucleotide containing an OGG1 substrate and a fluorophore in close proximity that are quenched by a quencher on the complementary strand. […] OGG1 activity releases the substrate base from DNA by cleaving the N-glycosidic bond between base and deoxyribose. The resulting apurinic site is cleaved by an excessive amount APEX1 activity which cause the duplex to melt, which in turn cause the fluorophore to become unquenched. Compounds to be tested are dissolved in DMSO and nano-dispensed directly into black 384-well plates, followed by transfer of enzyme and substrate solutions. […] The fluorescent signal is recorded in a plate reader equipped with suitable filters to register fluorescein fluorescence.
# Sequence of OGG1 (O15527 whole entry): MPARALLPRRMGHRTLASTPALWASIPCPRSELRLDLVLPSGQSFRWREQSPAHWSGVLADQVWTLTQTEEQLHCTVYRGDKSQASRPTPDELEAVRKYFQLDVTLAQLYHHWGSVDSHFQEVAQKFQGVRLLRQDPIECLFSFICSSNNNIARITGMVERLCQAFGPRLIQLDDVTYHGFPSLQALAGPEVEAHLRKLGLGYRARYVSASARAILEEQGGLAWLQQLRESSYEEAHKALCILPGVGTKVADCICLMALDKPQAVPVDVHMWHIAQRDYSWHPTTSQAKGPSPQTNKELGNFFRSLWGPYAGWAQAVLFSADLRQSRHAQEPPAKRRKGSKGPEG
row,SMILES,IC50
1,"O=c1[nH]c2c(Br)cccc2n1[C@H]1CC[C@@H](C(=O)Nc2cccc3cn[nH]c23)CC1 [Example 186, Cis-4-(4-bromo-2-oxo-2,3-dihydro-1H-1,3-benzodiazol-1-yl)-N-(1H-indazol-7-yl)cyclohexane-1-carboxamide]",2030 nM
2,"O=C(Nc1ccc(Cl)c(Cl)c1)N1CCC(n2c(=O)[nH]c3c(O)cccc32)CC1 [Example 9, N-(3,4-dichlorophenyl)-4-(4-hydroxy-2-oxo-2,3-dihydro-1H-1,3-benzodiazol-1-yl)piperidine-1-carboxamide]",796 nM
3,"COc1cc(NC(=O)[C@H]2CC[C@@H](n3c(=O)[nH]c4c(NC(=O)[C@@H]5CCN5)cccc43)CC2)ccc1C [Example 287, (2S)—N-{2-Oxo-1-[cis-4-[(3-methoxy-4-methylphenyl)carbamoyl]cyclohexyl]-2,3-dihydro-1H-1,3-benzodiazol-4-yl}azetidine-2-carboxamide]",27.1 nM
4,"COc1cc(NC(=O)[C@H]2CC[C@@H](n3c(=O)[nH]c4c(C(N)=O)cccc43)CC2)ccc1C [Example 291, 2-Oxo-1-[cis-4-[(3-methoxy-4-methylphenyl)carbamoyl]cyclohexyl]-2,3-dihydro-1H-1,3-benzodiazole-4-carboxamide]",9.53 nM
5,"O=c1[nH]c2c(F)cccc2n1[C@H]1CC[C@@H](C(=O)Nc2ccc3cc[nH]c3c2)CC1 [Example 215, Cis-4-(4-fluoro-2-oxo-2,3-dihydro-1H-1,3-benzodiazol-1-yl)-N-(1H-indol-6-yl)cyclohexane-1-carboxamide]",580 nM
6,"COc1cc(NC(=O)[C@H]2CC[C@@H](n3c(=O)[nH]c4c(C(=O)NCC(O)CO)cccc43)CC2)ccc1C (stereo partly drawn) [Example 248, N-(2,3-Dihydroxypropyl)-2-oxo-1-[cis-4-[(3-methoxy-4-methylphenyl)carbamoyl]cyclohexyl]-2,3-dihydro-1H-1,3-benzodiazole-4-carboxamide]",6.77 nM
7,"COc1cc(NC(=O)[C@H]2CC[C@@H](n3c(=O)[nH]c4c(C(=O)NCCCN)cccc43)CC2)ccc1C [Example 265, N-(3-Aminopropyl)-2-oxo-1-[cis-4-[(3-methoxy-4-methylphenyl)carbamoyl]cyclohexyl]-2,3-dihydro-1H-1,3-benzodiazole-4-carboxamide]",0.28 nM
8,"COc1cc(NC(=O)N2CCC(n3c(=O)[nH]c4c(C)cccc43)CC2)ccc1C [Example 115, N-(3-methoxy-4-methylphenyl)-4-(4-methyl-2-oxo-2,3-dihydro-1H-1,3-benzodiazol-1-yl)piperidine-1-carboxamide]",1430 nM
9,"O=c1[nH]c2c(Br)cccc2n1[C@H]1CC[C@@H](C(=O)Nc2cccc(C(F)(F)F)c2)CC1 [Example 141, (Cis)-4-(4-bromo-2-oxo-2,3-dihydro-1H-1,3-benzodiazol-1-yl)-N-[3-(trifluoromethyl)phenyl]cyclohexane-1-carboxamide]",5480 nM
10,"COc1ccc(NC(=O)[C@H]2CC[C@@H](n3c(=O)[nH]c4c(Br)cccc43)CC2)c(F)c1 [Example 156, (Cis)-4-(4-bromo-2-oxo-2,3-dihydro-1H-1,3-benzodiazol-1-yl)-N-(2-fluoro-4-methoxyphenyl)cyclohexane-1-carboxamide]",173 nM
11,"COCCOc1cccc2c1[nH]c(=O)n2[C@H]1CC[C@@H](C(=O)Nc2ccc3cc[nH]c3c2)CC1 [Example 246, Cis-N-(1H-indol-6-yl)-4-[4-(2-methoxyethoxy)-2-oxo-2,3-dihydro-1H-1,3-benzodiazol-1-yl]cyclohexane-1-carboxamide]",3630 nM
12,"COc1ccc(NC(=O)[C@H]2CC[C@@H](n3c(=O)[nH]c4ccc(F)cc43)CC2)cc1 [Example 216, Cis-4-(6-fluoro-2-oxo-2,3-dihydro-1H-1,3-benzodiazol-1-yl)-N-(4-methoxyphenyl)cyclohexane-1-carboxamide]",8130 nM
13,"COc1cc(NC(=O)[C@H]2CC[C@@H](n3c(=O)[nH]c4c(NC(=O)c5ccnn5C)cccc43)CC2)ccc1C [Example 321, 1-Methyl-N-{2-oxo-1-[cis-4-[(3-methoxy-4-methylphenyl)carbamoyl]cyclohexyl]-2,3-dihydro-1H-1,3-benzodiazol-4-yl}-1H-pyrazole-5-carboxamide]",5.75 nM
14,"CCCNc1cccc2c1[nH]c(=O)n2C1CCN(C(=O)Nc2ccc(OC)c(Cl)c2)CC1 [Example 175, N-(3-Chloro-4-methoxyphenyl)-4-[2-oxo-4-(propylamino)-2,3-dihydro-1H-1,3-benzodiazol-1-yl]piperidine-1-carboxamide]",2620 nM
15,"COc1cc(NC(=O)N2CCC(n3c(=O)[nH]c4c(-c5cncc(N)c5)cccc43)CC2)ccc1Cl [Example 104, 4-[4-(5-Aminopyridin-3-yl)-2-oxo-2,3-dihydro-1H-1,3-benzodiazol-1-yl]-N-(4-chloro-3-methoxyphenyl)piperidine-1-carboxamide]",2280 nM
16,"COc1ccc2c(c1)[nH]c(=O)n2C1CCN(C(=O)Nc2ccc(OC)c(Cl)c2)CC1 [Example 172, N-(3-Chloro-4-methoxyphenyl)-4-(5-methoxy-2-oxo-2,3-dihydro-1H-1,3-benzodiazol-1-yl)piperidine-1-carboxamide]",7790 nM
17,"CCOc1cccc2c1[nH]c(=O)n2C1CCN(C(=O)Nc2ccc(I)cc2)CC1 [Example 18, 4-(4-Ethoxy-2-oxo-2,3-dihydro-1H-1,3-benzodiazol-1-yl)-N-(4-iodophenyl)piperidine-1-carboxamide]",1390 nM

# The next lines start with the values.
row,IC50,SMILES
1,68.3 nM,"COc1cc(NC(=O)[C@H]2CC[C@@H](n3c(=O)[nH]c4c(C(=O)N5CCNCC5)cccc43)CC2)ccc1C [Example 261, Cis-N-(3-methoxy-4-methylphenyl)-4-[2-oxo-4-(piperazine-1-carbonyl)-2,3-dihydro-1H-1,3-benzodiazol-1-yl]cyclohexane-1-carboxamide]"
2,2030 nM,"O=c1[nH]c2c(Br)cccc2n1[C@H]1CC[C@@H](C(=O)Nc2ccc(C(F)(F)F)c(F)c2)CC1 [Example 137, (Cis)-4-(4-bromo-2-oxo-2,3-dihydro-1H-1,3-benzodiazol-1-yl)-N-[3-fluoro-4-(trifluoromethyl)phenyl]cyclohexane-1-carboxamide]"
3,3890 nM,"Cc1cccc(NC(=O)[C@H]2CC[C@@H](n3c(=O)[nH]c4c(Br)cccc43)CC2)c1C [Example 167, (Cis)-4-(4-bromo-2-oxo-2,3-dihydro-1H-1,3-benzodiazol-1-yl)-N-(2,3-dimethylphenyl)cyclohexane-1-carboxamide]"
4,153 nM,"COc1ccc(NC(=O)[C@H]2CC[C@@H](n3c(=O)[nH]c4c(F)cccc43)CC2)cc1 [Example 211, Cis-4-(4-fluoro-2-oxo-2,3-dihydro-1H-1,3-benzodiazol-1-yl)-N-(4-methoxyphenyl)cyclohexane-1-carboxamide]"
5,2530 nM,"NCc1ccc(-c2cccc3c2[nH]c(=O)n3C2CCN(C(=O)Nc3ccc(Cl)c(Cl)c3)CC2)cc1 [Example 33, 4-{4-[4-(Aminomethyl)phenyl]-2-oxo-2,3-dihydro-1H-1,3-benzodiazol-1-yl}-N-(3,4-dichlorophenyl)piperidine-1-carboxamide]"
6,556 nM,"COc1ncc(NC(=O)[C@H]2CC[C@@H](n3c(=O)[nH]c4c(F)cccc43)CC2)cc1C [Example 214, Cis-4-(4-fluoro-2-oxo-2,3-dihydro-1H-1,3-benzodiazol-1-yl)-N-(6-methoxy-5-methylpyridin-3-yl)cyclohexane-1-carboxamide]"
7,631 nM,"CN(C)c1ccc(NC(=O)[C@H]2CC[C@@H](n3c(=O)[nH]c4c(Br)cccc43)CC2)cc1 [Example 200, Cis-4-(4-bromo-2-oxo-2,3-dihydro-1H-1,3-benzodiazol-1-yl)-N-[4-(dimethylamino)phenyl]cyclohexane-1-carboxamide]"
8,1200 nM,"Cc1cccc(NC(=O)[C@H]2CC[C@@H](n3c(=O)[nH]c4c(Br)cccc43)CC2)c1 [Example 143, (Cis)-4-(4-bromo-2-oxo-2,3-dihydro-1H-1,3-benzodiazol-1-yl)-N-(3-methylphenyl)cyclohexane-1-carboxamide]"
9,1390 nM,"COc1cccc(NC(=O)[C@H]2CC[C@@H](n3c(=O)[nH]c4c(Br)cccc43)CC2)c1 [Example 165, (Cis)-4-(4-bromo-2-oxo-2,3-dihydro-1H-1,3-benzodiazol-1-yl)-N-(3-methoxyphenyl)cyclohexane-1-carboxamide]"
10,1.73 nM,"COc1cc(NC(=O)[C@H]2CC[C@@H](n3c(=O)[nH]c4c(NC(=O)CCN)cccc43)CC2)ccc1C [Example 284, Cis-4-[4-(3-aminopropanamido)-2-oxo-2,3-dihydro-1H-1,3-benzodiazol-1-yl]-N-(3-methoxy-4-methylphenyl)cyclohexane-1-carboxamide]"
11,586 nM,"COc1ccc(NC(=O)[C@H]2CC[C@@H](n3c(=O)[nH]c4ccc(F)cc43)CC2)cc1C [Example 217, Cis-4-(6-fluoro-2-oxo-2,3-dihydro-1H-1,3-benzodiazol-1-yl)-N-(4-methoxy-3-methylphenyl)cyclohexane-1-carboxamide]"
12,2410 nM,"CCc1ccc(NC(=O)N2CCC(n3c(=O)[nH]c4c(Br)cccc43)CC2)cc1 [Example 42, 4-(4-Bromo-2-oxo-2,3-dihydro-1H-1,3-benzodiazol-1-yl)-N-(4-ethylphenyl)piperidine-1-carboxamide]"
13,7090 nM,"COc1ccc(NC(=O)N2CCC(n3c(=O)[nH]c4cc(C)cnc43)CC2)cc1Cl [Example 181, N-(3-Chloro-4-methoxyphenyl)-4-{6-methyl-2-oxo-1H,2H,3H-imidazo[4,5-b]pyridin-3-yl}piperidine-1-carboxamide]"
14,1.21 nM,"COc1cc(NC(=O)[C@H]2CC[C@@H](n3c(=O)[nH]c4c(C(=O)NC5CCNC5)cccc43)CC2)ccc1C (stereo partly drawn) [Example 294, 2-Oxo-N-(pyrrolidin-3-yl)-1-[cis-4-[(3-methoxy-4-methylphenyl)carbamoyl]cyclohexyl]-2,3-dihydro-1H-1,3-benzodiazole-4-carboxamide]"
